Test results taken from patent US20110104161A1, “COMBINATIONS VEGF(R) INHIBITORS AND HEPATOCYTE GROWTH FACTOR (C-MET) INHIBITORS FOR THE TREATMENT OF CANCER” (priority 2008, published 2011).

Assays:
[1] = test system: U-87 MG human glioblastoma tumor cells; experiment: U-87 MG glioblastoma subcutaneous xenograft tumor growth in nude mice (Example 2); assay type: in vivo
Method: U-87 MG human glioblastoma tumor cells (from ATCC) were expanded in culture, harvested and injected subcutaneously into 5-8 week old female nude mice (CD1 NU/NU, Charles River Laboratories) (n=10/group). Treatment began on day 14 (average tumor volume 200 mm^3) with a VEGFR inhibitor, AMG 706, by oral gavage (75 mg/kg/dose/once per day) or an HGF/SF:c-Met inhibitor, AMG 102 by intraperitoneal injection, (3 or 10 μg/dose/twice per week) or a combination of AMG 706 and AMG 102 at the same doses and schedules. Vehicle alone (acid water pH 2.0) and IgG2 isotype control antibody (30 μg/dose/twice per week) served as negative controls for the VEFGFR inhibitor and the HGF/SF:c-Met inhibitor, respectively. Progression of tumor growth was followed by three dimensional caliper measurements and recorded as a function of time. Initial statistical analysis was done by repeated measures analysis of variance (ANOVA), followed by Scheffé post hoc testing for multiple comparisons. […] The combination of AMG 706 and AMG 102 provided no additional benefit compared to AMG 102 monotherapy. Body weights were not negatively impacted by any treatment. Arrow and Rx denote start of dosing.

[2] = test system: 786-0 human renal cell adenocarcinoma cells; experiment: 786-0-S4 renal cell adenocarcinoma subcutaneous xenograft tumor growth in athymic nude mice (Example 7); assay type: in vivo; settings: AMG 706 75 mpk/dose PO, Amgen Compound 3 100 mpk/dose PO, or combination, once daily; p≦0.0322 (AMG 706, combination), p=0.0519 (Amgen Compound 3)
Description: 786-0-S4 (786-0 human renal cell adenocarcinoma cells from ATCC that were passaged in vivo) were expanded in culture, harvested and injected subcutaneously into 9 week old female athymic nude mice (Harlan Sprague Dawley) (n=10/group). Administration of the VEGFR inhibitor, AMG 706 (75 mpk/dose, PO), or the c-Met inhibitor, Amgen Compound 3 (100 mpk/dose, PO), or a combination of AMG 706 (75 mpk/dose, PO) and Amgen Compound 3 (100 mpk/dose, PO) began on day 20 post tumor cell implantation. AMG 706 was subsequently administered once daily by oral gavage (75 mpk/dose) and Amgen Compound 3 was administered once daily by oral gavage (100 mpk/dose) for the duration of the experiment. Progression of tumor growth was assessed by three dimensional caliper measurements and recorded as a function of time. Statistical analysis was performed by repeated measures analysis of variance (RMANOVA) followed by Scheffe post hoc testing for multiple comparisons. Vehicles (Acid water (pH 2.2) and 2% HPMC 1% Tween 80) served as negative controls for AMG 706 and Amgen Compound 3, respectively. […] Body weights were not negatively impacted by any treatment. Arrow and Rx denote the start of dosing.

Compound	tumor growth compared with vehicle control group ([1]; AMG 706 75 mg/kg once per day oral gavage)	tumor growth compared to the vehicle [2]	tumor growth compared to the isotype control group ([1]; AMG 102 3 or 10 μg per dose twice per week i.p., p<0.0005)
CC1(C)CNc2cc(NC(=O)c3cccnc3NCc3ccncc3)ccc21 [AMG 706, N-(2,3-dihydro-3,3-dimethyl-1H-indol-6-yl)-2-[(4-pyridinylmethyl)amino]-3-pyridinecarboxamide]	no significant effect on tumor growth	significantly inhibited tumor growth	
Cc1c(C(=O)Nc2ccc(Oc3ccnc(NC(=O)N4CCOCC4)c3)c(F)c2)c(=O)n(-c2ccccc2)n1C [Amgen Compound 3, N-(4-(4-(1,5-dimethyl-3-oxo-2-phenyl-2,3-dihydro-1H-pyrazole-4-carboxamido)-2-fluorophenoxy)pyridin-2-yl)morpholine-4-carboxamide]		did not significantly inhibit tumor growth	
AMG 102: anti-HGF/SF antibody, identified in US 2005/0118643 and WO 2005/017107 as antibody 2.12.1			significantly inhibited tumor growth
